Measurements published in patent US20140039004A1, “METHOD OF TREATING OF GASTROESOPHAGEAL REFLUX DISEASE” (ONO PHARMACEUTICAL CO., LTD., priority 2012, published 2014).
Read-outs that look alike come from different tables or passages of the source.

How the values were obtained:
Assay type in all cases: in vivo, Cynomolgus monkeys
[1] = test system: hypersensitivity in the esophagus evoked by hydrochloric acid perfusion; experiment: Hypersensitivity model evoked by acid (nociceptive threshold to esophageal electrical stimulation)
Experimental: Cynomolgus monkeys (aged 4 to 6 years, female, Japan Laboratory Animals, Inc., no history of administration) were acclimated to a monkey chair for 2 days or more, and were fasted for 12 hours or more. After that, on the day of experiment, the monkeys were immobilized in the monkey chair after the measurement of body weight, and were acclimated for another one hour or more. An electrostimulation catheter was inserted from a nostril, and electrical stimulation was applied at the position approximately 10 cm above the cardiac part of stomach (the upper esophagus). […] This was carried out three times every 2 to 3 minutes at each evaluation time point, and the average value was used as a nociceptive threshold at each time point. Saline or hydrochloric acid (1.5 N) was perfused from the position approximately 3 cm above the cardiac region (the lower esophagus) to the stomach at an injection rate of 160 mL/h for 30 minutes. The nociceptive thresholds were measured before and after perfusion of saline in the esophagus, before perfusion of hydrochloric acid in the esophagus and at 0, 30, 60, 90 and 120 minutes after perfusion of hydrochloric acid in the esophagus. The vehicle or Compound A (0.01 and 0.1 mg/kg, respectively) was subcutaneously administered 30 minutes before the start of the perfusion of hydrochloric acid. […] The endpoint was assessed by comparing the nociceptive thresholds before and after perfusion of hydrochloric acid, the nociceptive threshold of the vehicle-administered group at each time point and the nociceptive threshold of the Compound A-administered group at each time point. […]

[2] = test system: hypersensitivity in the esophagus evoked by continuous electrical stimulation; experiment: Hypersensitivity model evoked by electrical stimulation (nociceptive threshold)
Experimental: Cynomolgus monkeys (aged 4 to 6 years, female, Japan Laboratory Animals, Inc., no history of administration) were acclimated to a monkey chair for 2 days or more, and were fasted for 12 hours or more. After that, on the day of experiment, the monkeys were immobilized in the monkey chair after the measurement of body weight, and were acclimated for another one hour or more. An electrostimulation catheter was inserted from a nostril, and electrical stimulation was applied at the position approximately 10 cm above the cardiac part of stomach (the upper esophagus). […] This was carried out three times every 2 to 3 minutes at each evaluation time point, and the average value was used as a nociceptive behavior threshold at each time point. Hypersensitivity was induced by continuous electrical stimulation to the position approximately 3 cm above the cardiac region (the lower esophagus). That is, an electrostimulation catheter was inserted from a nostril, and electrical stimulation was applied at the position of the lower esophagus for 30 minutes. […] The endpoint was assessed by comparing the nociceptive thresholds before and after continuous electrical stimulation, the nociceptive threshold of the vehicle-administered group at each time point and the nociceptive threshold of the Compound A-administered group at each time point. […]

[3] = Evaluation of penetration into the center (plasma, CSF and tissue concentration by LC/MS/MS); details: female, cynomolgus monkey, subcutaneous, 0.1 mg/kg s.c., 180 minutes after administration; for concentration at 180 min: n=3
Experimental: Cynomolgus monkeys (aged 4 to 6 years, female, Japan Laboratory Animals, Inc., no history of administration) were immobilized in a monkey chair, and Compound A was subcutaneously administered thereto (0.1 mg/kg), followed by collecting blood at 180 minutes after administration. The blood samples were centrifuged at 10000 g at 4° C. for 3 minutes to collect plasma. Next, the cerebrospinal fluid was collected under anesthesia by intravenous administration of pentobarbital sodium, and the lower esophagus, the upper esophagus, the dorsal root ganglion, the spinal cord and the brain stem were then collected. Furthermore, the dorsal root ganglion and the spinal cord were collected from the first to sixth thoracic spinal cord, which controls esophageal nerves. To the collected tissue, 4 times the amount of saline per wet weight of each tissue was added, followed by homogenization using Physcotron to obtain each tissue homogenate. The number of animals was 3.
The concentration of Compound A in each tissue was measured by a LC/MS/MS method.
To the samples for 50 μL of a calibration curve and test samples of Compound A, 1 mL of ultrapure water and an internal standard substance were added under ice cold conditions, followed by stirring. To a solid phase extraction cartridge (OAS1S MAX 30 mg/1 cc, Waters Corporation) which had been conditioned in advance, each sample was loaded and washing was carried out, followed by centrifugation, and a cleaning liquid was discharged from the cartridge for drying. Further, elution was carried out with 1 mL of an acetonitrile/acetic acid mixed liquid (49:1), and the eluate was concentrated and dried under a current of nitrogen (40° C. or less). The residue was redissolved in 200 μL of a methanol/0.1 vol % acetic acid solution (70: 30) to obtain a sample for the measurement of LC/MS/MS.
The analysis by LC/MS/MS was carried out under the following conditions.
Measuring device: Nanospace 3033 (Shiseido Co., Ltd.) Analysis column: SunFire C18 3.5 μm (2.1 mm i.d.×100 mm, 3.5 μm, Waters Corporation) Mobile phase: Acetonitrile/0.1 vol % acetic acid solution (70: 30) Cleaning liquid for cleaning port (one component): 2-propanol Cleaning liquid for cleaning port (two components): Mobile phase [acetonitrile/0.1 vol % acetic acid solution (70: 30)] Flow rate: 0.2 mL/min Column temperature: 35° C. Sample temperature: 4° C. Analysis time: 13 minutes
Measuring device: API4000 (AB SCIEX) Ion source: ESI Scan type: MRM
Using the peak area ratio (standard substance/internal standard substance) obtained by the measurement of a sample for a calibration curve, the calibration curve (y=aX+b, Y: Peak area ratio, X: Concentration) was made from the single regression line by the least squares method, and the peak area ratios of test samples were applied to the calibration curve to calculate a measured value.

[4] = test system: transient lower esophageal sphincter relaxation; experiment: Action on transient lower esophageal sphincter relaxation (TLESR) (2); details: 0.01 and 0.1 mg/kg s.c. 30 min before high-fat diet and air injection; measured for 45 minutes; vs vehicle-administered group; FIG. 3
Experimental: Cynomolgus monkeys (aged 4 to 6 years, female, Japan Laboratory Animals, Inc., no history of administration) were acclimated to a monkey chair for 2 days or more, and were fasted for 12 hours or more. After that, on the day of experiment, the monkeys were immobilized in the monkey chair after the measurement of body weight, and was acclimated for another one hour or more. A high-fat diet/air injection catheter and a sensor catheter for measuring pressure were inserted from a nostril and the oral cavity. A high-fat diet was injected into the stomach so that the final volume would be 80 mL, and air was then injected up to a pressure in the stomach of 20 mmHg, and maintained. The pressure in the esophagus was measured by a sensor catheter in the lower esophageal sphincter region and the positions approximately 2, 3 and 6 cm above the lower esophageal sphincter. […] The frequency of TLESR was measured for 45 minutes from the injection of high-fat diet to the end of ventilation. Here, TLESR was measured considering that the relaxation response of the lower esophageal sphincter region was longer by […] and was not elicited by peristaltic motion occurring in the esophagus, and the rate of reduction of pressure was greater than […], and measured. […]

- Kp at 180 min ([3]; brain stem / plasma, read-out: percentage to the concentration in plasma, brain stem tissue): 0.057
- concentration at 180 min ([3]; brain stem, tissue homogenate, read-out: average concentration in brain stem tissue): 0.22 ng/mL
- Kp at 180 min ([3]; cerebrospinal fluid / plasma, read-out: percentage to the concentration in plasma, cerebrospinal fluid): 0.019
- concentration at 180 min ([3]; cerebrospinal fluid, read-out: average concentration in cerebrospinal fluid): 0.07 ng/mL
- Kp at 180 min ([3]; dorsal root ganglion / plasma, read-out: percentage to the concentration in plasma, dorsal root ganglion): 0.163
- concentration at 180 min ([3]; dorsal root ganglion, tissue homogenate, read-out: average concentration in dorsal root ganglion): 0.62 ng/mL
- Kp at 180 min ([3]; lower esophagus / plasma, read-out: percentage to the concentration in plasma, lower esophagus): 0.067
- concentration at 180 min ([3]; lower esophagus, tissue homogenate, read-out: average concentration in lower esophagus): 0.25 ng/mL
- concentration at 180 min ([3]; plasma, read-out: average concentration in plasma): 3.79 ng/mL
- Kp at 180 min ([3]; spinal cord / plasma, read-out: percentage to the concentration in plasma, spinal cord): 0.051
- concentration at 180 min ([3]; spinal cord, tissue homogenate, read-out: average concentration in spinal cord): 0.19 ng/mL
- Kp at 180 min ([3]; upper esophagus / plasma, read-out: percentage to the concentration in plasma, upper esophagus): 0.073
- concentration at 180 min ([3]; upper esophagus, tissue homogenate, read-out: average concentration in upper esophagus): 0.28 ng/mL
SMILES: Cc1cc(C(=O)O)ccc1COc1cc2c(cc1N(CC(C)C)S(=O)(=O)c1nccs1)CCC2 [Compound A, 4-[({6-[isobutyl(1,3-thiazol-2-ylsulfonyl)amino]-2,3-dihydro-1H-inden-5-yl}oxy)methyl]-3-methyl benzoic acid]
- nociceptive threshold after hydrochloric acid perfusion ([1]; 0.1 mg/kg s.c. 30 min before HCl perfusion, FIG. 1): suppressed to a normal level
- decrease in nociceptive threshold after hydrochloric acid perfusion ([1]; Compound A 0.01 and 0.1 mg/kg s.c. 30 min before HCl (1.5 N) perfusion, vs control group, FIG. 1): dose-dependently suppressed
- duration of suppressive action after hydrochloric acid perfusion ([1]; Compound A-administered groups, s.c., time after end of HCl perfusion): ≥ 120 min
- decrease in nociceptive threshold after continuous electrical stimulation ([2]; 0.1 mg/kg s.c. 30 min before 30 min electrical stimulation of lower esophagus, FIG. 2): suppressed to a normal level
- duration of suppressive action after continuous electrical stimulation ([2]; 0.1 mg/kg s.c., time after end of continuous electrical stimulation): ≥ 120 min
- frequency of TLESR [4]: dose-dependently decreased
